Results reported in US12649744B2, “N-(pyridin-2-yl)-6,7,8,9-tetrahydro-5h-5,8-epiminocyclohepta[c]pyridine-10-carboxamide derivatives and similar compounds as GPR65 modulators for the treatment of cancer” (PATHIOS THERAPEUTICS LIMITED, priority 2020, dated 2026).

Target: human recombinant GPR65 (Homo sapiens, UniProt Q8IYL9)
Assay: Human GPR65 cAMP HTRF antagonist assay
Format: cell-based
Conditions: 1321N1-hrGPR65 cells, assay pH of 7.2, cAMP HTRF; read-out: hGPR65 IC50
Excerpt: The “Human GPR65 cyclic adenosine monophosphate (cAMP) Homogeneous Time Resolved Fluorescence (HTRF) antagonist assay”, or simply “cAMP assay”, as described below, can be used to measure the potency of GPR65 modulators, which is expressed as the concentration of compound required to reduce the increase in cAMP concentration upon GPR65 activation by 50% (i.e. an IC50).
Human GPR65 Cyclic Adenosine Monophosphate (cAMP) Homogeneous Time Resolved Fluorescence (HTRF) Antagonist Assay Procedure
IC50 data was obtained by the following procedure:
1321N1 human astrocytoma cells stably expressing human recombinant GPR65 (1321N1-hrGPR65 cells, EuroscreenFast) were cultured according to the vendor's instructions.
Compounds were tested for their ability to antagonise GPR65, through measuring the concentration of cytoplasmic cAMP following treatment of the cells at a pH of 7.2 to activate GPR65 signalling and addition of the compound to be tested. The extent to which the expected rise in cAMP concentration upon GPR65 activation was suppressed by the added compound is indicative of its potency. The assay was carried out according to EuroscreenFast assay methodology as follows.
On the day of the assay, test compounds were added to 384-well, low volume, white microtiter plates by acoustic dispensing. KRH buffer (5 mM KCl, 1.25 mM MgSO4, 124 mM NaCl, 25 mM HEPES, 13.3 mM Glucose, 1.25 mM KH2PO4 and 1.45 mM CaCl2) was adjusted to pH 6.5, pH 7.6 and pH 8.4 by adding NaOH. 1321N1-hGPR65 cells were rapidly thawed and diluted in KRH, pH 7.6 prior to centrifugation at 300×g for 5 min and resuspension in assay buffer (KRH, pH 7.6, supplemented with 1 mM 3-isobutyl-1-methylxanthine (IBMX) and 200 μM ethylenediaminetetraacetic acid (EDTA)). Cells were added to assay plates at a density of 2,000 cells per well in a volume of 5 μl. Assay plates were briefly centrifuged at 100×g and then incubated at room temperature for 30 min. Cells were stimulated by the addition of 5 μL KRH, pH 6.5, to achieve an assay pH of 7.2, while control wells received 5 μl KRH, pH 8.4 to achieve an assay pH of 7.9. Assay plates were briefly centrifuged at 100×g and then incubated at room temperature for 30 min.
Accumulation of cAMP was detected by cAMP HTRF kit (Cisbio). d2-labeled cAMP and cryptate-labeled anti-cAMP antibody in Lysis and Detection Buffer (Cisbio) were added to assay plates, and the plates were incubated at room temperature for 1 h. HTRF measurements were performed using a Pherastar FSX instrument. Acceptor and donor emission signals were measured at 665 nm and 620 nm, respectively, and HTRF ratios were calculated as signal665 nm/signal620nm×10^4. Data were normalised to high and low control values and fitted with 4-parameter logistic regression to determine hGPR65 IC50 values for the test compounds, which are shown in Table 1.

Sequence of human recombinant GPR65 (Q8IYL9 whole entry): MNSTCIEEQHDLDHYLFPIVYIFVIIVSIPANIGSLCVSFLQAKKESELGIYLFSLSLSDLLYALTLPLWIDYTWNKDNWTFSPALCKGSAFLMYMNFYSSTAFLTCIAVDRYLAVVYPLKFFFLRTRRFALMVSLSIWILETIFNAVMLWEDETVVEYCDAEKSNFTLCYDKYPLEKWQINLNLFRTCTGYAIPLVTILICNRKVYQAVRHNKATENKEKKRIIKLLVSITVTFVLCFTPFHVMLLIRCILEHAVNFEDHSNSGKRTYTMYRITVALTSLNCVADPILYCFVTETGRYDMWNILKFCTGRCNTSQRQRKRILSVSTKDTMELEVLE

O=C(Nc1nc(-c2ccccc2)no1)N1[C@H]2CC[C@@H]1c1ccnc(F)c1C2 [Compound 42, (5R,8S)-1-Fluoro-N-(3-phenyl-1,2,4-oxadiazol-5-yl)-6,7,8,9-tetrahydro-5H-5,8-epiminocyclohepta[c]pyridine-10-carboxamide]
IC50: 500 to 5000 nM

Cc1nnc(NC(=O)N2[C@H]3CC[C@@H]2c2ccnc(F)c2C3)s1 [Compound 43, (5R,8S)-1-Fluoro-N-(5-methyl-1,3,4-thiadiazol-2-yl)-6,7,8,9-tetrahydro-5H-5,8-epiminocyclohepta[c]pyridine-10-carboxamide]
IC50: > 5000 nM

O=C(Nc1ccc2nc(C(F)(F)F)ccc2c1)N1[C@H]2CC[C@@H]1c1ccnc(F)c1C2 [Compound 44, (5R,8S)-1-Fluoro-N-(2-(trifluoromethyl)quinolin-6-yl)-6,7,8,9-tetrahydro-5H-5,8-epiminocyclohepta[c]pyridine-10-carboxamide]
IC50: < 500 nM

O=C(Nc1nnc(-c2ccccc2)o1)N1[C@H]2CC[C@@H]1c1ccnc(F)c1C2 [Compound 45, (5R,8S)-1-Fluoro-N-(5-phenyl-1,3,4-oxadiazol-2-yl)-6,7,8,9-tetrahydro-5H-5,8-epiminocyclohepta[c]pyridine-10-carboxamide]
IC50: 500 to 5000 nM

N#Cc1cnc(NC(=O)N2[C@H]3CC[C@@H]2c2ccnc(F)c2C3)cc1Cl [Compound 46, (5R,8S)-N-(4-Chloro-5-cyanopyridin-2-yl)-1-fluoro-6,7,8,9-tetrahydro-5H-5,8-epiminocyclohepta[c]pyridine-10-carboxamide]
IC50: < 500 nM

N#Cc1ccc(NC(=O)N2[C@H]3CC[C@@H]2c2ccnc(F)c2C3)nc1Cl [Compound 47, (5R,8S)-N-(6-Chloro-5-cyanopyridin-2-yl)-1-fluoro-6,7,8,9-tetrahydro-5H-5,8-epiminocyclohepta[c]pyridine-10-carboxamide]
IC50: 500 to 5000 nM

Cn1nc(NC(=O)N2[C@H]3CC[C@@H]2c2ccnc(F)c2C3)cc1C(F)(F)F [Compound 48, (5R,8S)-1-fluoro-N-(1-methyl-5-(trifluoromethyl)-1H-pyrazol-3-yl)-6,7,8,9-tetrahydro-5H-5,8-epiminocyclohepta[c]pyridine-10-carboxamide]
IC50: > 5000 nM

O=C(Nc1cc(C(F)(F)F)on1)N1[C@H]2CC[C@@H]1c1c[nH]c(=O)cc1C2 [Compound 49, (6S,9R)-3-oxo-N-(5-(trifluoromethyl)isoxazol-3-yl)-3,5,6,7,8,9-hexahydro-2H-6,9-epiminocyclohepta[c]pyridine-10-carboxamide]
IC50: < 500 nM

O=C(Nc1cc(C(F)(F)F)no1)N1[C@H]2CC[C@@H]1c1ccnc(F)c1C2 [Compound 50, (5R,8S)-1-fluoro-N-(3-(trifluoromethyl)isoxazol-5-yl)-6,7,8,9-tetrahydro-5H-5,8-epiminocyclohepta[c]pyridine-10-carboxamide]
IC50: < 500 nM

COC(=O)c1cc(NC(=O)N2[C@H]3CC[C@@H]2c2ccnc(F)c2C3)no1 [Compound 51, methyl-3-((5R,8S)-1-fluoro-6,7,8,9-tetrahydro-5H-5,8-epiminocyclohepta[c]pyridine-10-carboxamido)isoxazole-5-carboxylate]
IC50: 500 to 5000 nM

N#Cc1cc(NC(=O)N2[C@H]3CC[C@@H]2c2ccnc(F)c2C3)no1 [Compound 52, (5R,8S)-N-(5-cyanoisoxazol-3-yl)-1-fluoro-6,7,8,9-tetrahydro-5H-5,8-epiminocyclohepta[c]pyridine-10-carboxamide]
IC50: < 500 nM
